Columns and labels:
[1] = system: A549 cell-derived tumorspheres; experiment: Tumorsphere formation; type: cell-based, human; details: A549 primary tumorspheres
Description: Human lung cancer cells, A549, were cultured under the same culture conditions as those for the breast cancer cells of Example 2-1. To establish primary tumorspheres, single cell-suspended A549 cells were inoculated into ultra-low attachment 6-well plates containing 2 ml of Cancer Stem Premium medium (ProMab Biotechnologies Inc, Richmond, Calif., USA) at a density of 5×10^4 cells/well. The cells were incubated in a 5% CO2 incubator at 37° C. for 10 days.
Lung cancer tumorspheres were counted in the same manner as in Example 3-1, and for the analysis of tumorsphere formation, tumorsphere formation efficiency (TFE, %) was determined by the following equation: TFE (%)=number of tumorspheres per well/total number of plated cells per well×100.

STAT3 = experiment: Electrophoretic mobility shift assay (EMSA) of mammosphere nuclear extract; type: cell-based, human; details: ciclesonide-treated mammosphere nuclear extract
MCF-7 cells [2] = experiment: ALDEFLUOR analysis, breast cancer cells; type: cell-based, human; details: 24 hours
Description: An ALDEFLUOR analysis system provides a novel approach to the identification, evaluation, and isolation of CSCs based on the activity of aldehyde dehydrogenase (ALDH). BODIPY-aminoacetaldehyde as an active reagent was added to breast cancer cells or lung cancer cells, and converted into fluorescent BODIPY-aminoacetate by ALDH. Diethylaminobenzaldehyde (DEAB), which is an ALDH inhibitor, was used as a negative control. MCF-7 cells or A549 cells were treated with 10 μM or 20 μM ciclesonide for 24 hours, and the proportion of ALDH-positive cells was analyzed by ALDEFLUOR assay. ALDH-positive and negative cells were sorted by C6 Accuri flow cytometry (BD Bioscience).

A549 cells [3] = experiment: Caspase-3/7 analysis (Caspase-Glo 3/7); type: cell-based, human; details: A549, 80 μM, 24 hours
Description: (§1) Breast cancer cells and lung cancer cells were treated with ciclesonide at different concentrations for 24 hours. Caspase-3/7 activity was measured in accordance with the manufacturer's protocol for the Caspase-Glo 3/7 kit (Promega, Wisconsin, USA). 100 μl of a Caspase-Glo 3/7 reagent was added to a 96-well plate where cancer cells were cultured. The plate was covered with a plate sealer, followed by culture at room temperature for 1 hour, and measured using a plate-reading luminometer, GloMax® Explorer (Promega, Wisconsin, USA).

MDA-MB-231 cells [4] = experiment: Caspase-3/7 analysis (Caspase-Glo 3/7); type: cell-based, human; details: MDA-MB-231, 40 μM and 80 μM, 24 hours
Description: as §1

A549 cells [5] = experiment: Lung cancer cell proliferation assay (MTS); type: cell-based, human; details: A549, 48 hours after treatment
Description: The proliferation rates of MCF-7 cells and MDA-MB-231 cells were measured using a CellTiter 96® aqueous one solution cell proliferation kit. The MCF-7 cells or the MDA-MB-231 cells were cultured in a 96-well plate for 48 hours in the presence of ciclesonide at concentrations of 0 μM, 5 μM, 10 μM, 20 μM, 40 μM, and 80 μM. In accordance with the manufacturer's protocol, absorbance at 490 nm was determined using a 96-well plate reader (Dynex Revelation, Dynex Ltd., Billingshurst, UK). Respective data was determined by measuring three sets.
An experiment was performed in the same manner as in Example 10-1, except that A549 cells were used as lung cancer cells and treated with ciclesonide at concentrations of 0 μM, 10 μM, 20 μM, 40 μM, 80 μM, and 100 μM.

[6] = system: MCF-7 cell xenograft tumor; experiment: Breast cancer xenograft model in NOD-SCID female nude mice; type: in vivo; details: MCF-7 xenograft, 10 mg/kg
Description: (§2) A total of 12 NOD-SCID (BALB/cSIc (nu/nu)) female nude mice producing breast cancer cells were divided into two groups. […] The volume of tumors of each control mouse was measured every three days and calculated by the following equation: (width×length^2)/2. The other six nude mice received neoadjuvant chemotherapy using a test drug by infusion at an optimum dose of 10 mg/kg/day.

MDA-MB-231 cells [7] = experiment: Apoptosis analysis by fluorescence staining (Hoechst 33258); type: cell-based, human; details: MDA-MB-231, 20 μM, 24 hours
Description: MDA-MB-231 cells were treated with 20 μM ciclesonide or A549 cells were treated with 30 μM ciclesonide, for 24 hours and the cells were incubated in 10 mg/ml of a Hoechst 33258 solution at 37° C. for 30 minutes. Subsequently, the cells were observed using a fluorescence microscope.

MCF-7 cells [8] = experiment: CD44 and CD24 expression flow cytometric analysis; type: cell-based, human; details: 24 hours, FACS
Description: The expression of CD44 and CD24 in MCF-7 cells was measured by FACS analysis. After isolating and harvesting cells using 1× trypsin/EDTA, one million cells were suspended, labeled with an FITC-conjugated anti-human CD44 antibody and a PE-conjugated anti-human CD24 antibody (BD Pharmingen, San Diego, Calif., USA), and incubated at 4° C. for 30 minutes. The cells were then washed three times with 1× PBS and analyzed by flow cytometry (Accuri C6, BD, San Diego, Calif., USA).

A549 cells [9] = experiment: Annexin V/PI staining, FACS; type: cell-based, human; details: A549, 10 μM and 20 μM, 24 hours
Description: (§3) Cancer cells were cultured in a 6-well plate for 24 hours along with 20 μM of ciclesonide for the case of breast cancer and 10 μM or 20 μM of ciclesonide or DMSO for the case of lung cancer. In accordance with the manufacturer's protocol, apoptotic cells were double-stained with PI and FITC-Annexin V. The sample was analyzed by flow cytometry (Accuri C6, BD, San Diego, Calif., USA).

MDA-MB-231 cells [10] = experiment: Annexin V/PI staining, FACS; type: cell-based, human; details: MDA-MB-231, 20 μM, 24 hours
Description: as §3

A549 cells [11] = experiment: Scratch migration analysis; type: cell-based, human; details: A549, wound healing at 18 hours
Description: (§4) MDA-MB-231 cells or A549 cells were inoculated into a 6-well plate and grown to 90% confluency. A scratch was made on the cell layer using a sterile white micropipette tip. After washing with DMEM medium, the breast cancer cells or lung cancer cells were treated with ciclesonide or DMSO. At 18 hours, wounded areas were photographed using an optical microscope at a magnification of ×40.

MDA-MB-231 cells [12] = experiment: Scratch migration analysis; type: cell-based, human; details: MDA-MB-231, wound healing at 18 hours
Description: as §4

[13] = system: A549 cell xenograft tumor; experiment: Lung cancer xenograft model in NOD-SCID male nude mice; type: in vivo; details: 10 mg/kg
Description: as §2, with “male” for “female”, “lung” for “breast”

CC(C)C(=O)OCC(=O)[C@@]12O[C@H](C3CCCCC3)O[C@@H]1C[C@H]1[C@@H]3CCC4=CC(=O)C=C[C@]4(C)[C@H]3[C@@H](O)C[C@@]12C [ciclesonide]
size of the tumorspheres [1]: significantly reduced | reduction of the number of tumorspheres ([1]; 5 μM and 10 μM): 90% | binding between the biotin-labeled SIE probe and Stat3 (STAT3): inhibited | proportion of ALDH-positive breast cancer cells (MCF-7 cells [2]): reduced | caspase 3/7 activity (A549 cells [3]): induced | caspase 3/7 activity (MDA-MB-231 cells [4]): induced | concentration at which growth of the cell line was inhibited in a concentration-dependent manner (A549 cells [5]): ≥ 40 µM | tumor volume vs control not treated [6]: smaller | tumor weight vs control not treated [6]: smaller | formation of apoptotic bodies (MDA-MB-231 cells [7]): apoptotic bodies were formed | subpopulation expressing CD44high/CD24low (MCF-7 cells [8]): reduced | number of apoptotic lung cancer cells (annexin V+) (A549 cells [9]): increased | number of apoptotic breast cancer cells (annexin V+) (MDA-MB-231 cells [10]): increased | migration (A549 cells [11]): inhibited | migration (MDA-MB-231 cells [12]): inhibited | tumor volume vs control not treated [13]: smaller | tumor weight vs control not treated [13]: smaller
